From BigSolDB 2.1

solubility (mole fraction) (in n-octanol, 293.15 K)	solubility (mole fraction) (in n-octanol, 298.15 K)	solubility (mole fraction) (in n-octanol, 303.15 K)	solubility (mole fraction) (in n-octanol, 310.15 K)	solubility (mole fraction) (in n-octanol, 315.15 K)	solubility (mole fraction) (in water, 293.15 K)	solubility (mole fraction) (in water, 298.15 K)	solubility (mole fraction) (in water, 303.15 K)	solubility (mole fraction) (in water, 310.15 K)	solubility (mole fraction) (in water, 315.15 K)	SMILES
0.00958	0.0116	0.0139	0.018	0.0222	1.45e-06	1.85e-06	2.32e-06	3.19e-06	3.71e-06	O=[N+]([O-])c1ccc(NS(=O)(=O)c2ccccc2)cc1
0.00112	0.00129	0.00158	0.00197	0.00234	4.11e-06	5.47e-06	7.58e-06	1.16e-05	1.45e-05	N#Cc1ccc(NS(=O)(=O)c2ccc(N)cc2)cc1
0.0026	0.003	0.00361	0.00465	0.00562	2.72e-06	3.64e-06	4.88e-06	7.63e-06	8.29e-06	Nc1ccc(S(=O)(=O)Nc2ccc([N+](=O)[O-])cc2)cc1
